Like-named read-outs stand apart in the source and are kept apart here.
What was measured:
[1] = biological target: T1, ornithine aminotransferase (OAT) (Mesocricetus auratus, UniProt A0A1U7QEB0); test: OAT activity assay in hair follicles (P5C formation, HPLC of DHQ); type: biochemical, hamster
T1 construct: Assays (including the initial assays) were conducted utilizing excised hamster flank organ follicles; from tissue; host or cells: hamster flank organ hair follicles, minced, sonicated and centrifuged; supernatant assayed
T1 sequence (A0A1U7QEB0 1-439): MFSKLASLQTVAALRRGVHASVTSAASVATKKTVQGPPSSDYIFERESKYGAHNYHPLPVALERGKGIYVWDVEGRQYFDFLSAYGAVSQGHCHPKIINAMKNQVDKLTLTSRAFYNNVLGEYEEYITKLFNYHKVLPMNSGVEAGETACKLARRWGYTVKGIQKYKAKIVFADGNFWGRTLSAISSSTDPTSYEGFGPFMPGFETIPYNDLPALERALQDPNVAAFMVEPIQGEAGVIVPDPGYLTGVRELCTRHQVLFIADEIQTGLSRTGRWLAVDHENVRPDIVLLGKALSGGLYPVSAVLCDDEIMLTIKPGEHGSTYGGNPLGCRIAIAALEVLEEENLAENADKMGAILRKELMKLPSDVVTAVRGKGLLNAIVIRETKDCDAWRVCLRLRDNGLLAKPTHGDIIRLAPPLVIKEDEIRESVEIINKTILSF
Protocol: The following assay for OAT activity based on the procedure of O'Donnell et al., Analytical Biochemistry 90, 41-46 (1978) was adapted for OAT measurements in hair follicles, and can be used to evaluate the effectiveness of OAT inhibitors in reducing OAT activity.
The product of OAT activity, pyrroline-5-carboxylic acid (P5C), was measured by reverse-phase HPLC analysis of dihydroquinazolium ion (DHQ). DHQ is a reaction product of PSC and o-aminobenzylaldehyde (OAB). The analysis was performed with a Waters 490 UV detector. The amount of DHQ formed was directly proportional to the concentration of P5C. The sensitivity of the Waters 490 UV detector had been determined to be above 100 picomoles of PSC injected and was reasonably linear.
Initial assays of flank organ follicle OAT activity were conducted employing saturating doses of ornithine (350 mM). The OAT mediated conversion of ornithine to P5C was monitored by measuring in vitro PSC formation, resulting in time and concentration dependent increases in PSC.
Assays (including the initial assays) were conducted utilizing excised hamster flank organ follicles. The excised hamster follicles were diluted in assay buffer (2 follicles/300 μl) and then were minced with scissors and homogenized with a sonicator. The resultant homogenate was centrifuged to obtain a cytosolic supernatant which was assayed for OAT. Samples were incubated for one hour with either Gabaculin, L-Canaline, or 5-FMOrn at 1 mM, 100 μM, 10 μM, and 1 μM concentrations. The concentration of P5C was then assayed.

flank organs hair growth = test: Golden Syrian hamster assay (flank organ hair mass); type: in vivo; conditions: topical, thirteen applications; for Treated (hair mass, mean ± SEM): treated flank organ
Source text: Male intact Golden Syrian hamsters are considered acceptable models for human beard hair growth in that they display oval shaped flank organs, one on each side, each about 8 mm. in major diameter, which grow thick black and coarse hair similar to human beard hair. These organs produce hair in response to androgens in the hamster. To evaluate the effectiveness of a particular OAT inhibitor, the flank organs of each of a group of hamsters are depilated by applying a thioglycolate based chemical depilatory (Surgex). To one organ of each animal 10-25 μl. of vehicle alone once a day is applied, while to the other organ of each animal an equal amount of vehicle containing an OAT inhibitor is applied. After thirteen applications (one application per day for five days a week), the flank organs are shaved and the amount of recovered hair (hair mass) from each is weighed. Percent-reduction of hair growth is calculated by subtracting the hair mass (mg) value of the test compound treated side from the hair mass value of the vehicle treated side; the delta value obtained is then divided by the hair mass value of the vehicle treated side, and the resultant number is multiplied by 100.
The above-described assay will be referred to herein as the "Golden Syrian hamster" assay. Preferred compositions provide an reduction in hair growth of at least about 35%, more preferably at least about 50%, and most preferably at least about 70% when tested in the Golden Syrian hamster assay.
The vehicle used in the compositions tested was 68% deionized water, 16% absolute ethanol, 5% propylene glycol, 5% dipropylene glycol, 4% benzoyl alcohol, and 2% propylene carbonate.

[2] = 10 μM, one hour incubation, flank organ follicle supernatant
[3] = 100 μM, one hour incubation, flank organ follicle supernatant, read-out: Percent Inhibition (OAT)

For `NC(CF)CCC(N)C(=O)O` (stereo not shown) [5-FMOrn, 6-fluoro-2,5-diaminohexanoic acid], the “nm P5C formed/fol/1 hr” value ([1]; 1 μM, one hour incubation) was 31.419 nm P5C formed/fol/1 hr, the “Percent Inhibition (OAT)” value ([1]; 1 μM, one hour incubation, flank organ follicle supernatant) was “No OAT inhibition and none” and the “nm P5C formed/fol/1 hr” value ([1]; 10 μM, one hour incubation) was 29.327 nm P5C formed/fol/1 hr. The “Percent Inhibition (OAT)” value [1, 2] was “No OAT inhibition and none”, the “nm P5C formed/fol/1 hr” value ([1]; 100 μM, one hour incubation) was 19.562 nm P5C formed/fol/1 hr and the “nm P5C formed/fol/1 hr” value ([1]; 1 mM, pH = 7.5, one hour incubation) was 3.334 nm P5C formed/fol/1 hr. The “Percent Inhibition (OAT)” value ([1]; 1 mM, pH = 7.5, one hour incubation, flank organ follicle supernatant) was 83.036%, the inhibition at 100 µM ([1]; read-out: Percent Inhibition (OAT), 100 μM, one hour incubation, flank organ follicle supernatant) was 0.471% and the inhibition at 1000 µM ([1]; read-out: Percent Inhibition (OAT), 1 mM, pH = 7.5, one hour incubation, flank organ follicle supernatant) was 83%. For the same compound, the “% Reduction (of hair growth, mean ± SEM)” value (flank organs hair growth; 5% in vehicle) was 66.02 ± 6.30%, the “Treated (hair mass, mean ± SEM)” value (flank organs hair growth; 5% in vehicle) was “.616 ± .15 mg” and the “% Reduction (of hair growth, mean ± SEM)” value (flank organs hair growth; 15% in vehicle) was 84.55 ± 2.47%. For the same compound, the “Treated (hair mass, mean ± SEM)” value (flank organs hair growth; 15% in vehicle) was “.322 ± .07 mg”.
`NOCC[C@H](N)C(=O)O` [Canaline, (S)-2-amino-4-amino-oxybutyric acid] was tested, and the “nm P5C formed/fol/1 hr” value ([1]; 1 μM, one hour incubation) was 29.859 nm P5C formed/fol/1 hr, the “Percent Inhibition (OAT)” value ([1]; 1 μM, one hour incubation, flank organ follicle supernatant, listed as L-Canaline) was “no inhibition and none” and the “nm P5C formed/fol/1 hr” value ([1]; 10 μM, one hour incubation) was 24.096 nm P5C formed/fol/1 hr. For the same compound, the “Percent Inhibition (OAT)” value ([1]; 10 μM, one hour incubation, flank organ follicle supernatant, listed as L-Canaline) was “no inhibition and none”, the “nm P5C formed/fol/1 hr” value ([1]; 100 μM, one hour incubation) was 14.612 nm P5C formed/fol/1 hr and the “Percent Inhibition (OAT)” value ([1]; 100 μM, one hour incubation, flank organ follicle supernatant, listed as L-Canaline) was 25.653%. The inhibition at 100 µM [1, 3] was 25%, the inhibition at 1000 µM ([1]; 1 mM, pH = 7.5, one hour incubation, flank organ follicle supernatant, read-out: Percent Inhibition (OAT)) was 100% and the “% Reduction (of hair growth, mean ± SEM)” value (flank organs hair growth; 2% in vehicle) was 20.99 ± 7.70%. For the same compound, the “Treated (hair mass, mean ± SEM)” value (flank organs hair growth; 2% in vehicle) was 1.553 ± .20 mg, the “% Reduction (of hair growth, mean ± SEM)” value (flank organs hair growth; 10% in vehicle) was 44.50 ± 7.40% and the “Treated (hair mass, mean ± SEM)” value (flank organs hair growth; 10% in vehicle) was “.790 ± .11 mg”.
`NC1C=CC=C(C(=O)O)C1` (stereo not shown) [Gabaculin, 3-amino-2,3-dihydrobenzoic acid] was tested, and the “nm P5C formed/fol/1 hr” value ([1]; 1 μM, one hour incubation) was 19.637 nm P5C formed/fol/1 hr, the inhibition at 1 µM ([1]; 1 μM, one hour incubation, flank organ follicle supernatant, read-out: Percent Inhibition (OAT)) was 0.089% and the “nm P5C formed/fol/1 hr” value ([1]; 10 μM, one hour incubation) was 5.057 nm P5C formed/fol/1 hr. The “Percent Inhibition (OAT)” value [1, 2] was 74.268%, the inhibition at 10 µM ([1]; 10 μM, one hour incubation, flank organ follicle supernatant, read-out: Percent Inhibition (OAT)) was 75% and the inhibition at 100 µM [1, 3] was 100%. The inhibition at 1000 µM ([1]; 1 mM, one hour incubation, flank organ follicle supernatant, read-out: Percent Inhibition (OAT)) was 100%, the “relative potency as OAT inhibitor” value ([1]; comparison of Gabaculin, L-Canaline and 5-FMOrn) was “most potent inhibitor” and the “% Reduction (of hair growth, mean ± SEM)” value (flank organs hair growth; 10% in vehicle) was 43.06 ± 2.72%. The “Treated (hair mass, mean ± SEM)” value (flank organs hair growth; 10% in vehicle) was 1.365 ± .14 mg, the “% Reduction (of hair growth, mean ± SEM)” value (flank organs hair growth; 25% in vehicle) was 48.08 ± 5.00% and the “Treated (hair mass, mean ± SEM)” value (flank organs hair growth; 25% in vehicle) was 1.266 ± .11 mg.
